From article PMC12663214, “Synthesis, structural elucidation, and molecular docking of diclofenac-derived hydrazone metal complexes with anti-inflammatory and anticancer potential” (Scientific Reports, 2025)
Values joined by “and” are separate entries in the source; they are usually repeats but may differ in a detail not shown here. Identical values can stand only once. Like-named read-outs stand apart in the source and are kept apart here.

How the values were obtained:
[1] = tested on: MCF-7 (breast cancer) cell line; conditions: cited from earlier work
[2] = tested on: HepG-2 (liver cancer) cell line; conditions: cited from earlier work
[3] = biological target: T1, recombinant COX-2 (human) (Homo sapiens, UniProt P35354); test: COX-2 inhibition, ELISA kit (Cayman Chemical); format: biochemical; conditions: for COX-2 selectivity index (S.I.): ratio of COX-1 IC50 to COX-2 IC50; for IC50: human recombinant COX-2, ELISA
T1 construct: purchased Cayman Chemical 560131
T1 sequence (P35354 18-604): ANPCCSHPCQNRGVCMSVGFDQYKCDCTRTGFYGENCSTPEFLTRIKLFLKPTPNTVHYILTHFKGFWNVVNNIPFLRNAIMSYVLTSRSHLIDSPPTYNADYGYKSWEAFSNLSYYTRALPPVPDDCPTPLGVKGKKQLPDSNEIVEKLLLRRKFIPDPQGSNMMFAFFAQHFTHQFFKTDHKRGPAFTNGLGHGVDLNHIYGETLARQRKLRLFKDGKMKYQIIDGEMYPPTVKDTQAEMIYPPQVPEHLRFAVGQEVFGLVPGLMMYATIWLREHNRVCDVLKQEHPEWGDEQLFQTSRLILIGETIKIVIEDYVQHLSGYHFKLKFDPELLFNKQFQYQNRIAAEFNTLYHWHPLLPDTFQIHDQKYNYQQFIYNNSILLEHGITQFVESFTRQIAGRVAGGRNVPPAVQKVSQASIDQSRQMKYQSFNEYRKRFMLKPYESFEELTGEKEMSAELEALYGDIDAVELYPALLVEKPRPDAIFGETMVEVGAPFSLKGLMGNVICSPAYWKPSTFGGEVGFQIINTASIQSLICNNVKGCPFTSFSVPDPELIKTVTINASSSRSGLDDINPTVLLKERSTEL
Description: (§1) These enzymes are crucial targets in the development of anti-inflammatory agents due to their roles in prostaglandin synthesis, with COX-1 associated with normal physiological functions and COX-2 predominantly involved in inflammation.

COX-1 (ovine) = biological target: T2, COX-1 (ovine) (Ovis aries, UniProt P05979); test: COX-1 inhibition, ELISA kit (Cayman Chemical); format: biochemical; conditions: ovine COX-1, ELISA
T2 construct: purchased Cayman Chemical 560131
T2 sequence (P05979 25-600): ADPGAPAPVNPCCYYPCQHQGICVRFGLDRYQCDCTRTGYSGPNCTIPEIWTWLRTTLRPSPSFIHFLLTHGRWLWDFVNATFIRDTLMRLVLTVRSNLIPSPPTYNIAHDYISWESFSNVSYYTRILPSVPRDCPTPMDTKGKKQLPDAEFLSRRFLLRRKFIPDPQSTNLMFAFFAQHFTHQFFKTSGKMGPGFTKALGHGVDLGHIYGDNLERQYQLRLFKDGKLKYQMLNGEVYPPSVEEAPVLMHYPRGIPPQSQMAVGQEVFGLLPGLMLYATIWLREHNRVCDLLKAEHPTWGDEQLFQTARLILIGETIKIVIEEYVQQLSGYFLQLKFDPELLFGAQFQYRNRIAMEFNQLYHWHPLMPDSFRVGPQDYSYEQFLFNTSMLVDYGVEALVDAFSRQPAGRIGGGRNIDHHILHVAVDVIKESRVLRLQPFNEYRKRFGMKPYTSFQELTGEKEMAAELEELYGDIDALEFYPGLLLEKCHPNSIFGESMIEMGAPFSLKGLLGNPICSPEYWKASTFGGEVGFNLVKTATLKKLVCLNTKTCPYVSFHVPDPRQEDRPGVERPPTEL
Description: as §1

[4] = tested on: MCF-7 (breast cancer) cell line; test: MTT cytotoxicity assay, MCF-7; format: cell-based, homo sapiens, human; conditions: for IC50: MTT, MCF-7
Experimental: (§2) MCF-7 and HepG-2 cell lines (provided by the Cell Culture Department, VACSERA, Egypt) were seeded in each 96-well tissue culture plate well at a concentration of 1 × 10^5 cells/ml, adding 100 µl/well. Incubation at 37 °C followed for 24 h until a full monolayer was established. The growth medium was later aspirated, and the cell monolayer was rinsed twice using wash media. It was then subjected to a two-fold dilution in an RPMI medium containing 2% serum, which is regarded as a maintenance medium. Later, 0.1 ml of each dilution was added to individual wells. Three wells were reserved for use as controls and received only the maintenance medium. The plate was then incubated at 37 °C and further monitored accordingly. The marks of toxicity to be checked on the cells include disruption of the cell monolayer, cell rounding and shrinking, or the appearance of granules. MTT solution is prepared from BIO BASIC CANADA INC with a 5 mg/ml strength in PBS. To ensure the MTT and media are well mixed, add 20 µl of MTT solution to each well and shake the plate. The MTT will be metabolized by incubating the plate at 37 °C with 5% CO2 for one to five hr. If there is any residual substance, get rid of the rest by drying the plate on paper towels. Add DMSO (200 µl) to dissolve the formazan (MTT metabolic product) and then put the plate on the shaking table set at 150 rpm for 5 min to assure that the formazan is fully dissolved into the solvent. Measure the optical density at 560 nm and subtract the background signal at 620 nm. The optical density value reflects directly the number of cells[28]–[30]. MCF-7 (breast cancer) and HepG-2 (liver cancer) cell lines.
(§3) The antitumor effects of the newly synthesized HDN ligand and its metal complexes with Cu(II) and Gd(III) were tested against MCF-7 (breast cancer) and HepG-2 (liver cancer) cell lines using the MTT assay[28]–[30].. This method measures cell viability based on mitochondrial activity, clearly indicating each compound’s cytotoxic potential. The key findings from these tests are outlined in Tables 4, S8, and S9 and illustrated in Figures S21-S31.

[5] = tested on: HepG-2 (liver cancer) cell line; test: MTT cytotoxicity assay, HepG-2; format: cell-based, homo sapiens, human; conditions: for IC50: MTT, HepG-2
Experimental: as §2, §3

[6] = Solubility in organic solvents; format: physicochemical

O=c1[nH]cc(F)c(=O)[nH]1 [5-Fluorouracil]
IC50 ([1]; ref [55],[56]): 3.95 µM
IC50 ([2]; ref [55],[56]): 32.5 µM

O.O=C(Cc1ccccc1Nc1c(Cl)cccc1Cl)NN=Cc1c([O-])ccc2ccccc12.[Ag+] [Ag(I)-HDN, [Ag(DN)(H2O)]]
COX-2 selectivity index (S.I.) [3]: 14.15

N.N.[Cl][Pt][Cl] [Cisplatin]
IC50 ([1]; ref [57],[58]): 15.2 µM
IC50 ([2]; ref [57],[58]): 8.45 µM

O=C(Cc1ccccc1Nc1c(Cl)cccc1Cl)NN=Cc1c([O-])ccc2ccccc12.O=C(Cc1ccccc1Nc1c(Cl)cccc1Cl)NN=Cc1c([O-])ccc2ccccc12.[Co+2] [Co(II)-HDN, [Co(DN)2]]
IC50 (COX-1 (ovine)): 8.5 µM
IC50 [3]: 620 nM
COX-2 selectivity index (S.I.) [3]: 13.71

O=C(O)Cc1ccccc1Nc1c(Cl)cccc1Cl [Diclofenac sodium]
IC50 ([1]; ref [54],[64]): 1790 µM
IC50 ([2]; ref [54],[64]): 147 µM

O.O.O.O.O=C(Cc1ccccc1Nc1c(Cl)cccc1Cl)NN=Cc1c(O)ccc2ccccc12.O=C(Cc1ccccc1Nc1c(Cl)cccc1Cl)NN=Cc1c(O)ccc2ccccc12.O=[N+]([O-])[O-].O=[N+]([O-])[O-].O=[N+]([O-])[O-].[Gd+3] [Gd(III)-HDN, [Gd(HDN)2(NO3)2]NO3.4H2O]
Inhibition % ([4]; MCF-7, 0.31 µM/ml): 18.33%
Inhibition % ([4]; MCF-7, 0.62 µM/ml): 50.83%
Inhibition % ([4]; MCF-7, 1.25 µM/ml): 70.06%
Inhibition % ([4]; MCF-7, 2.50 µM/ml): 75.34%
Inhibition % ([4]; MCF-7, 5.00 µM/ml): 96.71%
Inhibition % ([4]; MCF-7, 10.00 µM/ml): 96.86%
Inhibition % ([4]; MCF-7, 10.00 µM/ml, listed as Gd(III) complex): exceeding 95%
IC50 [4]: 800 nM
IC50 (COX-1 (ovine)): 6 µM
IC50 [3]: 950 nM
COX-2 selectivity index (S.I.) [3]: 6.31
Inhibition % ([5]; HepG-2, 0.31 µM/ml): 0.45%
Inhibition % ([5]; HepG-2, 0.62 µM/ml): 0.40%
Inhibition % ([5]; HepG-2, 1.25 µM/ml): 7.98%
Inhibition % ([5]; HepG-2, 2.50 µM/ml): 53.05%
Inhibition % ([5]; HepG-2, 5.00 µM/ml): 81.14%
Inhibition % ([5]; HepG-2, 10.00 µM/ml): 95.27%
Inhibition % ([5]; HepG-2, 10.00 µM/ml, listed as Gd(III) complex): exceeding 95%
IC50 [5]: 2470 nM

CC(C)Cc1ccc(C(C)C(=O)O)cc1 (centres unmarked) [Ibuprofen]
IC50 ([1]; ref [54]): 5060 µM

O=C(Cc1ccccc1Nc1c(Cl)cccc1Cl)N/N=C/c1c(O)ccc2ccccc12 [Ligand [HDN], (E)−2-(2-((2,6-dichlorophenyl)amino)phenyl)-N’-((2-hydroxynaphthalen-1-yl)methylene)acetohydrazide]
inhibition at 31.25 µg/mL ([4]; Homo sapiens, MCF7, MCF-7, 31.25 µg/ml): 7.98%
inhibition at 62.5 µg/mL ([4]; Homo sapiens, MCF7, MCF-7, 62.5 µg/ml): 52.5%
inhibition at 250 µg/mL ([4]; Homo sapiens, MCF7, MCF-7, 250 µg/ml): 89.2%
inhibition at 500 µg/mL ([4]; Homo sapiens, MCF7, MCF-7, 500 µg/ml): 97.3%
inhibition at 1000 µg/mL ([4]; Homo sapiens, MCF7, MCF-7, 1000 µg/ml): 97.5%
IC50 ([4]; Homo sapiens, MCF7): 178 µM and 82.6 µg/mL
solubility in acetone ([6]; organic solvent: acetone): slight solubility
solubility in DMSO and DMF ([6]; organic solvents: DMSO, DMF): dissolved well
solubility in EtOH and MeOH ([6]; organic solvents: EtOH, MeOH): didn’t dissolve
IC50 (COX-1 (ovine)): 10.5 µM
IC50 [3]: 60 nM
COX-2 selectivity index (S.I.) [3]: 174.5
inhibition at 31.25 µg/mL ([5]; Homo sapiens, HepG2, HepG-2, 31.25 µg/ml): 12.9%
inhibition at 62.5 µg/mL ([5]; Homo sapiens, HepG2, HepG-2, 62.5 µg/ml): 61.4%
inhibition at 250 µg/mL ([5]; Homo sapiens, HepG2, HepG-2, 250 µg/ml): 96.9%
inhibition at 500 µg/mL ([5]; Homo sapiens, HepG2, HepG-2, 500 µg/ml): 97.2%
inhibition at 1000 µg/mL ([5]; Homo sapiens, HepG2, HepG-2, 1000 µg/ml): 97%
IC50 ([5]; Homo sapiens, HepG2): 152 µM and 70.5 µg/mL

[Cu(DN)2]2.5H2O [Cu(II)-HDN]
Inhibition % ([4]; MCF-7, 0.31 µM/ml): 16.98%
Inhibition % ([4]; MCF-7, 0.62 µM/ml): 63.27%
Inhibition % ([4]; MCF-7, 1.25 µM/ml): 84.90%
Inhibition % ([4]; MCF-7, 2.50 µM/ml): 97.18%
Inhibition % ([4]; MCF-7, 5.00 µM/ml): 97.39%
Inhibition % ([4]; MCF-7, 10.00 µM/ml): 97.49%
Inhibition % ([4]; MCF-7, 10.00 µM/ml, listed as Cu(II) complex): exceeding 95%
IC50 [4]: 650 nM
times more potent than 5-fluorouracil ([4]; breast cancer cells (MCF-7), from IC50 values): approximately six
Inhibition % ([5]; HepG-2, 0.31 µM/ml): 2.96%
Inhibition % ([5]; HepG-2, 0.62 µM/ml): 35.16%
Inhibition % ([5]; HepG-2, 1.25 µM/ml): 61.65%
Inhibition % ([5]; HepG-2, 2.50 µM/ml): 85.53%
Inhibition % ([5]; HepG-2, 5.00 µM/ml): 97.32%
Inhibition % ([5]; HepG-2, 10.00 µM/ml): 97.38%
Inhibition % ([5]; HepG-2, 10.00 µM/ml, listed as Cu(II) complex): exceeding 95%
IC50 [5]: 1000 nM
